Measured values published in ChEMBL document CHEMBL1201862, “PubChem BioAssay data set” (2004).
Calls of active or inactive are those of the source.

Key:
[1] = target: Glyceraldehyde-3-phosphate dehydrogenase (Homo sapiens, UniProt P04406)
[2] = target: T1, Bcl-2-related protein A1 (Mus musculus, UniProt Q07440); assay: small-molecule antagonists of Bfl-1/BH3 interaction – biochemical, TR-FRET, mouse Bfl-1, confirmation (AID 621);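 note: TR-FRET binding of GST-Bfl-1 to FITC-labelled Bid peptide via terbium antibody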
T1 sequence (Q07440 whole entry): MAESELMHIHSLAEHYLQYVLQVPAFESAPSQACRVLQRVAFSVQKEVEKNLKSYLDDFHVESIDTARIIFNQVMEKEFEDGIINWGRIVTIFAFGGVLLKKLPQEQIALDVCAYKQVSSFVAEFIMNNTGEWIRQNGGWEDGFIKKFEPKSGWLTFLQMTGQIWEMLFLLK

[3] = target: T1, Bcl-2-related protein A1; assay: Bfl-1 binding inhibitors, SAR follow-up, biochemical, fluorescence polarization (AID 1070)
[4] = target: T2, Short transient receptor potential channel 4 (Mus musculus, UniProt Q9QUQ5); assay: calcium entry via TRPC4 opening agents – cell-based, HEK293 TRPC4/mu-opioid, Fluo-4 calcium, dose response (AID 434937); assay type: functional
T2 sequence (Q9QUQ5 whole entry): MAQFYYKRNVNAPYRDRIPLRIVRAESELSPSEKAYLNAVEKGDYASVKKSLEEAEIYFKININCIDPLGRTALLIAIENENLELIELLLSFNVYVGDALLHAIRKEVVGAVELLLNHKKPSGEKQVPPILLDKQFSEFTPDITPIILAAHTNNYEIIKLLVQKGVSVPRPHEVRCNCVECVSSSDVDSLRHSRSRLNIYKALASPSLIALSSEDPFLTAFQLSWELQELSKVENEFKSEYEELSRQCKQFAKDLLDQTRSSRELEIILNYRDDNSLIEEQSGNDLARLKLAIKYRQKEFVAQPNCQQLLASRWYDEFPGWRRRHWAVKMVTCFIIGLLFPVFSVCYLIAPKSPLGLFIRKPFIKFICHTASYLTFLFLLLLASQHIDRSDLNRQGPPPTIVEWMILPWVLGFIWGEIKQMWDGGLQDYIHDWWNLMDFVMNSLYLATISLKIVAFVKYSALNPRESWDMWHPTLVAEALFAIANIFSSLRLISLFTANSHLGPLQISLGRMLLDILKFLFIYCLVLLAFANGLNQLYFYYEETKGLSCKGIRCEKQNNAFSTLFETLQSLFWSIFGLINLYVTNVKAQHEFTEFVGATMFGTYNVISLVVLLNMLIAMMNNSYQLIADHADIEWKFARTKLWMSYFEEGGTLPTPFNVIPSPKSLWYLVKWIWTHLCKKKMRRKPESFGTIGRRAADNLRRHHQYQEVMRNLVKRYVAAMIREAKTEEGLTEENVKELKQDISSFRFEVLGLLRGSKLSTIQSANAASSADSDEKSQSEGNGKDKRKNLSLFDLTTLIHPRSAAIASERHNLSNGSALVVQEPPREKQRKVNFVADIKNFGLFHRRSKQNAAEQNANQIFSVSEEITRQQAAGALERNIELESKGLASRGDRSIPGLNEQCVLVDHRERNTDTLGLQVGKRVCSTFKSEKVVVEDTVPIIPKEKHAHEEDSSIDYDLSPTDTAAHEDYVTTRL

[5] = target: G-protein coupled receptor 55 (Homo sapiens, UniProt Q9Y2T6); assay: inhibition of LPI-stimulated GPR55 beta-arrestin translocation – imaging, U2OS, beta-arrestin-GFP, LPI agonist, primary screen (AID 2013); assay type: functional;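 note: antagonist potency measured as reduced agonist-driven arrestin aggregation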
G-protein coupled receptor 55, sequence (Q9Y2T6 whole entry): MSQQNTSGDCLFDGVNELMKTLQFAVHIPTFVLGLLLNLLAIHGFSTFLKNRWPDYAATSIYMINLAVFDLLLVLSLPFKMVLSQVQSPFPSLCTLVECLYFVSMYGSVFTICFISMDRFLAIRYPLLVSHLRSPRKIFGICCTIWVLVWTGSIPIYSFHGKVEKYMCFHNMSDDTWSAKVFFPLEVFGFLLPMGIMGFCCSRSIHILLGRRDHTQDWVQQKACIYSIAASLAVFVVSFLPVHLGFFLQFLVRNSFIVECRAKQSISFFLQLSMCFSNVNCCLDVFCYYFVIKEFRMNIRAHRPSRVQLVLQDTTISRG

[6] = cells
[7] = tested on: Escherichia coli; assay: microbe, parasite or virus in culture
[8] = decrease of insulin promoter-GFP reporter – imaging, high-content screening, mouse beta cells (AID 1628); assay type: functional; settings: MIN6
[9] = MIN6 cell viability loss – mouse insulinoma, cytotoxicity control, dose response (AID 2122); assay type: functional;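 note: confirmatory high-throughput counterscreen run to flag cytotoxic compounds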
[10] = viability of uninfected HEp-2 cells – cell-based, HTS, cytotoxicity control for RSV inhibitor project, dose response (AID 2410); assay type: functional; settings: human respiratory syncytial virus
[11] = tested on: Vero; assay: cells; assay type: functional, cell-based; settings: Chlorocebus sabaeus
[12] = tested on: Vero; assay: cells; assay type: functional; settings: Chlorocebus sabaeus
[13] = target: Paired box protein Pax-8 (Homo sapiens, UniProt Q06710); assay: PAX8 transcriptional activity inhibition in RMG-I – RMG-I cells, luciferase, cherry-pick, dose response (AID 687027); assay type: functional, cell-based;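 note: luciferase reporter driven by Pax8 target thyroperoxidase promoter measured by SteadyGlo luminescence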
Paired box protein Pax-8, sequence (Q06710 whole entry): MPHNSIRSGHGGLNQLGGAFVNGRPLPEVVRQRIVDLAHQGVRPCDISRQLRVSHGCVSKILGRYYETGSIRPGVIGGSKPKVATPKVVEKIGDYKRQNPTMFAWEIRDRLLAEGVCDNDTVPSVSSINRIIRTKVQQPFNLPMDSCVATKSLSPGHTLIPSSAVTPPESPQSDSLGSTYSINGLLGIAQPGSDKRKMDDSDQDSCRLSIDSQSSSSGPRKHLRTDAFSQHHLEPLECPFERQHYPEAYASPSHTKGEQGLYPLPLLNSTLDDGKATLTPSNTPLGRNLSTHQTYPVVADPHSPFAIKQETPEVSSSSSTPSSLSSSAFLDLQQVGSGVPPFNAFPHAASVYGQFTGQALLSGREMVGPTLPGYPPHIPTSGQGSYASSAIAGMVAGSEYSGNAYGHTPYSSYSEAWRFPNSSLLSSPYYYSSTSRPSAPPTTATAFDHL

[14] = target: Estrogen receptor beta (Homo sapiens, UniProt Q92731); assay: blockers of SRC-3 recruitment to ERβ – biochemical, ELISA, streptavidin-HRP readout, orthogonal assay, confirmation (AID 1060)
Estrogen receptor beta, sequence (Q92731 whole entry): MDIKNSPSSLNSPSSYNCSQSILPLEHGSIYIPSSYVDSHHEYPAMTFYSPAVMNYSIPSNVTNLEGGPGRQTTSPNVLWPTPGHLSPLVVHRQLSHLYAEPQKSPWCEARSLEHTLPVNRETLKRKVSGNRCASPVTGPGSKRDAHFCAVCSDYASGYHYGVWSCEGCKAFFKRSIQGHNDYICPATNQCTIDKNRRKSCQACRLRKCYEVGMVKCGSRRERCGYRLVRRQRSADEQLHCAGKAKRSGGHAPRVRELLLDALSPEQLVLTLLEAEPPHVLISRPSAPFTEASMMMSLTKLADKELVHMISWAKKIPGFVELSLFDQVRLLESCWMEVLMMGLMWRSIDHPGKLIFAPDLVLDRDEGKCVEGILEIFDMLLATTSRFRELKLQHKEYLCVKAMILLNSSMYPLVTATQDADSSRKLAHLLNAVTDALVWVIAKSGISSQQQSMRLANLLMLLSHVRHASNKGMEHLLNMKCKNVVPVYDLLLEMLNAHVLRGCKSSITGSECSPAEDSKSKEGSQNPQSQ

[15] = target: T3, Estrogen receptor (Homo sapiens, UniProt P03372);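 note: potency for inhibiting coactivator peptide recruitment to the receptor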
T3 sequence (P03372 whole entry): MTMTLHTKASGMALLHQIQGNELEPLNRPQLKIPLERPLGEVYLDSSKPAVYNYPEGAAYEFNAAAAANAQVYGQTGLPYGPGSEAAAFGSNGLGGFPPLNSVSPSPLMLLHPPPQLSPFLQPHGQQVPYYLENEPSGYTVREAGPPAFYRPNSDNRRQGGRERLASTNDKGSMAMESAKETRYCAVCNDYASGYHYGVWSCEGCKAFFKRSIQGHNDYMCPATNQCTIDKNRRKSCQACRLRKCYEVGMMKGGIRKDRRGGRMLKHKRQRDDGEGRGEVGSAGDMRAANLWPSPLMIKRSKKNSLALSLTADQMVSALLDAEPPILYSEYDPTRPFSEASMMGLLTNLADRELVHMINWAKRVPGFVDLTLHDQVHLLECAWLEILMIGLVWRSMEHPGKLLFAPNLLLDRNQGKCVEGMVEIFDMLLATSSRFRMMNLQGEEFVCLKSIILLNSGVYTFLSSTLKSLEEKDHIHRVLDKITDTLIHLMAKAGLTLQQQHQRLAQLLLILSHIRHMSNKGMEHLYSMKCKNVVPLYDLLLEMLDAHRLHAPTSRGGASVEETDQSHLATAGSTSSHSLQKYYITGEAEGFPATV

Glyceraldehyde-3-phosphate dehydrogenase, sequence (P04406 whole entry): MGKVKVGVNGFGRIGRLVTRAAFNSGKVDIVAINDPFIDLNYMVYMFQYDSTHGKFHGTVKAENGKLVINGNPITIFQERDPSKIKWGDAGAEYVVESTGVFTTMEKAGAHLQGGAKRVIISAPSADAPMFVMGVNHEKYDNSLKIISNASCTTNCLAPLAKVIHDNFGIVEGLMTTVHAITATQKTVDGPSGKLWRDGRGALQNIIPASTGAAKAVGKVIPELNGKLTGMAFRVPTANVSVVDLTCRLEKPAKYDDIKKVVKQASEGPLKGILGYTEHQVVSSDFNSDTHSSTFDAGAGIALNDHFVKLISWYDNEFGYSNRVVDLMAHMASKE

Which results are given for `CN1CCN(C2=C(Cl)C(=O)N(c3c(Cl)cccc3Cl)C2=O)CC1`?
IC50 [1]: > 100 µM (not active); IC50 [2]: 3.72 µM (active); IC50 [3]: 13.4 µM (active)

With `CCCCCSc1nnc2c(n1)OC(c1cccn1C)N(C(C)=O)c1ccccc1-2` (stereo not drawn) as the compound, how does the EC50 [4] read?
Its EC50 is 10.6 µM (active).

With `O=C(Nc1ccccc1Cl)C(Cl)C(=O)c1ccccc1` (stereo not drawn) as the compound, how does the IC50 [5] read?
Its IC50 is 11.2 µM (inactive).

With `COc1ccc(-n2c(SCC(=O)/C(C#N)=C(\C)N)nc3ccccc3c2=O)cc1OC` as the compound, how does the IC50 [6] read?
Its IC50 is 2.62 µM (active).

For `CC1CCCN(C(=O)c2nn(C)c3c2CSc2ccccc2-3)C1` (stereo not drawn), which AC50 [7] is on record?
The AC50 was 48.3 µM (active).

For `C[C@H]1CC[C@H]2C(=O)N3[C@H](c4ccccc4Br)[C@@H](C)CC[C@H]3C(=O)N2[C@@H]1c1ccccc1Br`, which IC50 [8] is on record?
The IC50 was 2.32 µM (active).

And the IC50 [9]?
Its IC50 is 4.2 µM (active).

With `Cc1sc2nc(C3CC3)nc(SCC(=O)N3c4ccccc4CC3C)c2c1C` (stereo not drawn) as the compound, how does the CC50 [10] read?
Its CC50 is 7.61 µM (active).

What about the IC50 [6] of the same compound?
Its IC50 is 3.98 µM (active).

What does the source list for `CC12CCC3C(CCC4(O)CC(O)CCC34C=NO)C1(O)CCC2C1=COC(=O)C1` (stereo not drawn)?
IC50 [11]: > 25 µM (active); CC50 [12]: 0.62 µM (active); AC50 [13]: 1.12 µM (active)

Which IC50 [14] does the source give for `O=C(Nc1ccc(F)cc1F)c1noc2c1CCC2` here?
Its IC50 is > 50 µM (not active).

With `Cc1ccc(OCCOCCNC(C)(C)C)c([N+](=O)[O-])c1` as the compound, how does the AC50 [7] read?
Its AC50 is 46.9 µM (active).

For `O=C(O)c1ccccc1Nc1ccc(OC(F)F)cc1`, which CC50 [10] is on record?
Its CC50 is 23.8 µM (active).

What about the IC50 [6] of the same compound?
Its IC50 is 40.9 µM (active).

For `C=CCn1c(=O)[nH]c2cc(C(=O)N3CCN(c4ccc(C(C)=O)cc4)CC3)ccc2c1=O`, which IC50 [15] is on record?
Its IC50 is > 50 µM (not active).

Which CC50 [10] does the source give for `CCCOc1ccccc1/C=C1\SC(N2CCCCC2)=NC1=O` here?
The CC50 was 44.7 µM (active).

And the IC50 [11]?
Its IC50 is 5.33 µM (active).

What about the CC50 [12] of the same compound?
Its CC50 is > 25 µM (active).

For `COC(=O)c1cc(NC2c3ccccc3C(=O)N2c2ccc(Cl)cn2)cc(C(=O)OC)c1` (stereo not drawn), which IC50 [15] is on record?
The IC50 was > 50 µM (not active).
